Assay results reported in PubChem BioAssay (NCI).
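A five-concentration, 48-hour dose response in 96-well plates underlies each endpoint, interpolated linearly between surrounding concentrations. At the GI50, growth is halved. At the TGI there is no net growth.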

Experiments:
Assay in all cases: growth of human tumour cells (NCI), 48 h
ACHN renal = test system: ACHN renal
CAKI-1 renal = test system: CAKI-1 renal
COLO 205 colon = test system: COLO 205 colon
DU-145 prostate = test system: DU-145 prostate
HOP-92 NSCLC = test system: HOP-92 NSCLC
KM12 colon = test system: KM12 colon
MDA-MB-231 breast = test system: MDA-MB-231 breast
NCI-H460 lung = test system: NCI-H460 lung
OVCAR-3 ovarian = test system: OVCAR-3 ovarian
OVCAR-5 ovarian = test system: OVCAR-5 ovarian
OVCAR-8 ovarian = test system: OVCAR-8 ovarian
PC-3 prostate = test system: PC-3 prostate
SF-268 CNS = test system: SF-268 CNS
SF-295 CNS = test system: SF-295 CNS
SF-539 CNS = test system: SF-539 CNS
SK-MEL-28 melanoma = test system: SK-MEL-28 melanoma
SK-OV-3 ovarian = test system: SK-OV-3 ovarian
SN12C renal = test system: SN12C renal
SNB-75 CNS = test system: SNB-75 CNS
UACC-62 melanoma = test system: UACC-62 melanoma
CCRF-CEM leukemia = test system: CCRF-CEM leukemia
HL-60(TB) leukemia = test system: HL-60(TB) leukemia
K-562 leukemia = test system: K-562 leukemia
NCI-H522 lung = test system: NCI-H522 lung
786-0 renal = test system: 786-0 renal
A498 renal = test system: A498 renal
A549 NSCLC = test system: A549 NSCLC
EKVX NSCLC = test system: EKVX NSCLC
HCC-2998 colon = test system: HCC-2998 colon
HCT-116 colon = test system: HCT-116 colon
HCT-15 colon = test system: HCT-15 colon
HOP-62 NSCLC = test system: HOP-62 NSCLC
HS 578T breast = test system: HS 578T breast
HT29 colon = test system: HT29 colon
IGROV1 ovarian = test system: IGROV1 ovarian
LOX IMVI melanoma = test system: LOX IMVI melanoma
M14 melanoma = test system: M14 melanoma
MALME-3M melanoma = test system: MALME-3M melanoma
MCF7 breast = test system: MCF7 breast
MDA-MB-435 = test system: MDA-MB-435
MOLT-4 leukemia = test system: MOLT-4 leukemia
NCI-H226 lung = test system: NCI-H226 lung
NCI-H23 lung = test system: NCI-H23 lung
NCI/ADR-RES ovarian = test system: NCI/ADR-RES ovarian
OVCAR-4 ovarian = test system: OVCAR-4 ovarian
RPMI-8226 leukemia = test system: RPMI-8226 leukemia
RXF 393 renal = test system: RXF 393 renal
SK-MEL-5 melanoma = test system: SK-MEL-5 melanoma
SNB-19 CNS = test system: SNB-19 CNS
SR leukemia = test system: SR leukemia
SW-620 colon = test system: SW-620 colon
T-47D breast = test system: T-47D breast
TK-10 renal = test system: TK-10 renal
U251 CNS = test system: U251 CNS
UACC-257 melanoma = test system: UACC-257 melanoma
UO-31 renal = test system: UO-31 renal

Structure (SMILES): OC(c1cc(-c2ccc(Cl)cc2)nc2c(Cl)cccc12)C1CCCCN1 (stereo unspecified)
- GI50 (ACHN renal): 1.53 µM
- TGI (ACHN renal): 2.88 µM
- GI50 (CAKI-1 renal): 1.16 µM
- TGI (CAKI-1 renal): 2.52 µM
- GI50 (COLO 205 colon): 1.7 µM
- TGI (COLO 205 colon): 3.17 µM
- GI50 (DU-145 prostate): 1.71 µM
- TGI (DU-145 prostate): 3.1 µM
- GI50 (HOP-92 NSCLC): 1.02 µM
- TGI (HOP-92 NSCLC): 2.36 µM
- GI50 (KM12 colon): 1.85 µM
- TGI (KM12 colon): 3.36 µM
- GI50 (MDA-MB-231 breast): 1.49 µM
- TGI (MDA-MB-231 breast): 3.02 µM
- GI50 (NCI-H460 lung): 1.64 µM
- TGI (NCI-H460 lung): 3.15 µM
- GI50 (OVCAR-3 ovarian): 1.81 µM
- TGI (OVCAR-3 ovarian): 3.35 µM
- GI50 (OVCAR-5 ovarian): 1.66 µM
- TGI (OVCAR-5 ovarian): 3.26 µM
- GI50 (OVCAR-8 ovarian): 2.11 µM
- TGI (OVCAR-8 ovarian): 4.63 µM
- GI50 (PC-3 prostate): 1.46 µM
- TGI (PC-3 prostate): 2.91 µM
- GI50 (SF-268 CNS): 1.78 µM
- TGI (SF-268 CNS): 3.4 µM
- GI50 (SF-295 CNS): 1.68 µM
- TGI (SF-295 CNS): 3.28 µM
- GI50 (SF-539 CNS): 1.7 µM
- TGI (SF-539 CNS): 3.15 µM
- GI50 (SK-MEL-28 melanoma): 1.76 µM
- TGI (SK-MEL-28 melanoma): 3.23 µM
- GI50 (SK-OV-3 ovarian): 1.76 µM
- TGI (SK-OV-3 ovarian): 3.21 µM
- GI50 (SN12C renal): 1.6 µM
- TGI (SN12C renal): 3.27 µM
- GI50 (SNB-75 CNS): 1.28 µM
- TGI (SNB-75 CNS): 2.68 µM
- GI50 (UACC-62 melanoma): 1.69 µM
- TGI (UACC-62 melanoma): 3.17 µM

Structure (SMILES): CC(C)(Oc1ccc(/C=C/C(=O)c2ccccc2)cc1)C(=O)Nc1c(Cl)cccc1Cl
- TGI (CCRF-CEM leukemia): > 31.6 µM
- TGI (HL-60(TB) leukemia): 23.6 µM
- TGI (K-562 leukemia): > 100 µM
- TGI (NCI-H522 lung): 9.86 µM

Structure (SMILES): C=CCCCCCCCCC(=O)ON(Cc1ccc(O)c(OC)c1)C(=O)C(F)(F)F
- TGI (786-0 renal): > 100 µM
- TGI (A498 renal): > 100 µM
- TGI (A549 NSCLC): > 100 µM
- TGI (ACHN renal): > 100 µM
- TGI (CCRF-CEM leukemia): > 100 µM
- TGI (COLO 205 colon): > 100 µM
- TGI (DU-145 prostate): > 100 µM
- TGI (EKVX NSCLC): > 100 µM
- TGI (HCC-2998 colon): > 100 µM
- TGI (HCT-116 colon): > 100 µM
- TGI (HCT-15 colon): > 100 µM
- TGI (HL-60(TB) leukemia): > 100 µM
- TGI (HOP-62 NSCLC): > 100 µM
- TGI (HOP-92 NSCLC): > 100 µM
- TGI (HS 578T breast): > 100 µM
- TGI (HT29 colon): > 100 µM
- TGI (IGROV1 ovarian): > 100 µM
- TGI (K-562 leukemia): > 100 µM
- TGI (KM12 colon): > 100 µM
- TGI (LOX IMVI melanoma): > 100 µM
- TGI (M14 melanoma): > 100 µM
- TGI (MALME-3M melanoma): > 100 µM
- TGI (MCF7 breast): > 100 µM
- TGI (MDA-MB-231 breast): > 100 µM
- TGI (MDA-MB-435): > 100 µM
- TGI (MOLT-4 leukemia): > 100 µM
- TGI (NCI-H226 lung): > 100 µM
- TGI (NCI-H23 lung): > 100 µM
- TGI (NCI-H460 lung): > 100 µM
- TGI (NCI/ADR-RES ovarian): > 100 µM
- TGI (OVCAR-4 ovarian): > 100 µM
- TGI (OVCAR-5 ovarian): > 100 µM
- TGI (OVCAR-8 ovarian): > 100 µM
- TGI (RPMI-8226 leukemia): > 100 µM
- TGI (RXF 393 renal): > 100 µM
- TGI (SF-268 CNS): > 100 µM
- TGI (SF-295 CNS): > 100 µM
- TGI (SF-539 CNS): > 100 µM
- TGI (SK-MEL-28 melanoma): > 100 µM
- TGI (SK-MEL-5 melanoma): > 100 µM
- TGI (SK-OV-3 ovarian): > 100 µM
- TGI (SN12C renal): > 100 µM
- TGI (SNB-19 CNS): > 100 µM
- TGI (SNB-75 CNS): > 100 µM
- TGI (SR leukemia): > 100 µM
- TGI (SW-620 colon): > 100 µM
- TGI (T-47D breast): > 100 µM
- TGI (TK-10 renal): > 100 µM
- TGI (U251 CNS): > 100 µM
- TGI (UACC-257 melanoma): > 100 µM
- TGI (UACC-62 melanoma): > 100 µM
- TGI (UO-31 renal): 68 µM
